Test results reported in BindingDB's records for doi:10.1016/S0960-894X(97)10088-9 (1997).
pIC50: −log10 of the molar value.

experiment: Compound was evaluated for inhibitory activity against Isoleucyl-tRNA synthetase

Compared with `COC(=O)CCCCCCCCOC(=O)/C=C/C[C@@H]1OC[C@H](NS(=O)(=O)c2cccc(Cl)c2)[C@@H](O)[C@H]1O` [9-{(E)-4-[(2S,3R,4R,5S)-5-(3-Chloro-benzenesulfonylamino)-3,4-dihydroxy-tetrahydro-pyran-2-yl]-but-2-enoyloxy}-nonanoic acid methyl ester], `COC(=O)CCCCCCCCOC(=O)/C=C/C[C@@H]1OC[C@H](NS(=O)(=O)CCCCl)[C@@H](O)[C@H]1O` [9-{(E)-4-[(2S,3R,4R,5S)-5-(3-Chloro-propane-1-sulfonylamino)-3,4-dihydroxy-tetrahydro-pyran-2-yl]-but-2-enoyloxy}-nonanoic acid methyl ester] is 0.48 log units higher in pIC50: 6.52 for the first, 7.00 for the second.

`CCCCS(=O)(=O)N[C@H]1CO[C@@H](C/C=C/C(=O)OCCCCCCCCC(=O)OC)[C@H](O)[C@@H]1O` [9-{(E)-4-[(2S,3R,4R,5S)-5-(Butane-1-sulfonylamino)-3,4-dihydroxy-tetrahydro-pyran-2-yl]-but-2-enoyloxy}-nonanoic acid methyl ester] showed a pIC50 of 6.52.
